Paper PMC8518114, “Safety, tolerability and pharmacokinetics of emodepside, a potential novel treatment for onchocerciasis (river blindness), in healthy male subjects” (British Journal of Clinical Pharmacology, 2021)

Tested on: healthy male subjects
Experiment: Safety: treatment-emergent adverse events, MAD study
Type: in vivo, human
Protocol: Safety was assessed by monitoring adverse events (AEs) throughout the studies that were coded using the standard Medical Dictionary for Regulatory Activities (MedDRA) dictionary (versions 19.0 [SAD part 1], 20.0 [SAD part 2] and 21.1 [MAD]). Other safety monitoring included 12‐lead electrocardiography recordings, measurement of vital signs (systolic and diastolic blood pressure and heart rate), physical and neurological (Hamilton depression rating scale[17] and Beck depression inventory‐II fastscreen[18] [SAD only], mental status examination, cranial nerves assessment and motor system examination, sensation to light touch, coordination/cerebellar function assessment, Romberg's test, gait test, daytime sleepiness assessment [SAD and MAD studies]) examinations, haematology, biochemistry and urinalysis. To minimise risks in the SAD and MAD studies, subjects were dosed sequentially using sentinels in each cohort (1 IP, 1 placebo) as per European Medicines Agency guidelines.[19] If the previous dose was well tolerated, with no safety concerns, dose escalation was decided by the Safety Review Group after reviewing safety and PK data from all available cohorts. Moreover, treatment with the highest dose in the SAD study was repeated (cohort 10) for regular ophthalmological evaluations (assessments available as supplementary information) to better characterise visual AEs observed in the SAD study. Regular ophthalmological assessments were also performed in the MAD study.

With `CC(C)C[C@H]1C(=O)O[C@H](Cc2ccc(N3CCOCC3)cc2)C(=O)N(C)[C@@H](CC(C)C)C(=O)O[C@H](C)C(=O)N(C)[C@@H](CC(C)C)C(=O)O[C@H](Cc2ccc(N3CCOCC3)cc2)C(=O)N(C)[C@@H](CC(C)C)C(=O)O[C@H](C)C(=O)N1C` [emodepside] the “Any TEAE” value (LSF 5 mg OD n = 6) was 5 (83.3) n (%), the “TEAE: Eye disorders” value (LSF 5 mg OD n = 6) was 3 (50.0) n (%) and the “TEAE: Gastrointestinal disorders” value (LSF 5 mg OD n = 6) was 2 (33.3) n (%). The “TEAE: General disorders and administration site disorders” value (LSF 5 mg OD n = 6) was 1 (16.7) n (%), the “TEAE: Immune system disorders” value (LSF 5 mg OD n = 6) was 0 n (%) and the “TEAE: Infections and infestations” value (LSF 5 mg OD n = 6) was 4 (66.7) n (%). The “TEAE: Injury, poisoning and procedural complications” value (from here on “TEAE: Injury”) (LSF 5 mg OD n = 6) was 0 n (%), the “TEAE: Investigations” value (LSF 5 mg OD n = 6) was 0 n (%) and the “TEAE: Metabolism and nutrition disorders” value (LSF 5 mg OD n = 6) was 0 n (%). The “TEAE: Musculoskeletal and connective tissue disorders” value (LSF 5 mg OD n = 6) was 2 (33.3) n (%), the “TEAE: Nervous system disorders” value (LSF 5 mg OD n = 6) was 2 (33.3) n (%) and the “TEAE: Psychiatric disorders” value (LSF 5 mg OD n = 6) was 2 (33.3) n (%). The “TEAE: Respiratory, thoracic and mediastinal disorders” value (“TEAE: Respiratory” for short) (LSF 5 mg OD n = 6) was 1 (16.7) n (%), the “TEAE: Skin and subcutaneous tissue disorders” value (LSF 5 mg OD n = 6) was 1 (16.7) n (%) and the “TEAE: Surgical and medicinal procedures” value (LSF 5 mg OD n = 6) was 0 n (%). For the same molecule, the “Any TEAE” value (LSF 10 mg BID n = 6) was 6 (100) n (%), the “TEAE: Eye disorders” value (LSF 10 mg BID n = 6) was 3 (50.0) n (%) and the “TEAE: Gastrointestinal disorders” value (LSF 10 mg BID n = 6) was 0 n (%). For the same molecule, the “TEAE: General disorders and administration site disorders” value (LSF 10 mg BID n = 6) was 1 (16.7) n (%), the “TEAE: Immune system disorders” value (LSF 10 mg BID n = 6) was 1 (16.7) n (%) and the “TEAE: Injury” value (LSF 10 mg BID n = 6) was 1 (16.7) n (%). For the same molecule, the “TEAE: Investigations” value (LSF 10 mg BID n = 6) was 1 (16.7) n (%), the “TEAE: Metabolism and nutrition disorders” value (LSF 10 mg BID n = 6) was 0 n (%) and the “TEAE: Musculoskeletal and connective tissue disorders” value (LSF 10 mg BID n = 6) was 1 (16.7) n (%). For the same molecule, the “TEAE: Nervous system disorders” value (LSF 10 mg BID n = 6) was 0 n (%), the “TEAE: Psychiatric disorders” value (LSF 10 mg BID n = 6) was 0 n (%) and the “TEAE: Respiratory” value (LSF 10 mg BID n = 6) was 0 n (%). The “TEAE: Skin and subcutaneous tissue disorders” value (LSF 10 mg BID n = 6) was 0 n (%), the “TEAE: Surgical and medicinal procedures” value (LSF 10 mg BID n = 6) was 0 n (%) and the “Any TEAE” value (LSF 10 mg OD n = 6) was 6 (100.0) n (%). The “TEAE: Eye disorders” value (LSF 10 mg OD n = 6) was 1 (16.7) n (%), the “TEAE: Gastrointestinal disorders” value (LSF 10 mg OD n = 6) was 0 n (%) and the “TEAE: General disorders and administration site disorders” value (LSF 10 mg OD n = 6) was 1 (16.7) n (%). The “TEAE: Immune system disorders” value (LSF 10 mg OD n = 6) was 0 n (%), the “TEAE: Infections and infestations” value (LSF 10 mg OD n = 6) was 4 (66.7) n (%) and the “TEAE: Injury” value (LSF 10 mg OD n = 6) was 0 n (%). The “TEAE: Investigations” value (LSF 10 mg OD n = 6) was 0 n (%), the “TEAE: Metabolism and nutrition disorders” value (LSF 10 mg OD n = 6) was 1 (16.7) n (%) and the “TEAE: Musculoskeletal and connective tissue disorders” value (LSF 10 mg OD n = 6) was 2 (33.3) n (%). The “TEAE: Nervous system disorders” value (LSF 10 mg OD n = 6) was 0 n (%), the “TEAE: Psychiatric disorders” value (LSF 10 mg OD n = 6) was 1 (16.7) n (%) and the “TEAE: Respiratory” value (LSF 10 mg OD n = 6) was 0 n (%). The “TEAE: Skin and subcutaneous tissue disorders” value (LSF 10 mg OD n = 6) was 1 (16.7) n (%) and the “TEAE: Surgical and medicinal procedures” value (LSF 10 mg OD n = 6) was 1 (16.7) n (%).
